# Where a SMILES comes first, the peptide text is derived from it. The star is where a group is joined. Cbz = O=C(OCc1ccccc1)*
# How the values were obtained:
# [1] = tested on: p53; parameters: method as in PMID 27283735; settings: cited from earlier work
# [2] = tested on: HIV-1 US, SS and MS RNAs; assay: qRTPCR of HIV-1 RNAs in 293T cells transfected with pHxbc2 R-/RI-; format: cell-based; settings: 20 nM, 24 h, 293T (Figure S6)
# Experimental: Samples were processed and assayed as previously described using the BioRad Aurum Total RNA Lysis Kit (BioRad) as per manufacturer’s instructions with the addition of Turbo DNase (Ambion). Purified RNA (0.5–2 μg) was reverse transcribed using M-MLV (Invitrogen) to generate complementary DNA (cDNA). HIV-1 and actin mRNA levels in DMSO- and compound-treated samples were quantified by qPCR using the Mastercycler ep realplex (Eppendorf) as described by Wong et al.. Gene quantification was evaluated using the absolute quantification method, normalized to β-actin expression, and expressed relative to DMSO-treatment.
# Additional file 1: Figure S1. […] Cell viability was measured by an XTT assay. […] Cells were analyzed after 24 h incubation with the compounds at the indicated concentrations ranging between 0–47 μM (791), 0–5 μM (833), or 0–62.5 μM (892). Results are expressed as the percentage (%) of viable cells relative to DMSO treatment ±SEM of two independent experiments performed in triplicate. […] Images are cropped to show a representative field of view. b The dose range of the compounds which inhibit HIV-1 GagGFP expression in HeLa rtTA HIVGagGFP C7 cells was measured by mean fluorescence intensity and expressed relative to fluorescence intensity in DMSO-treated samples (N ≥ 3, *p ≤ 0.05, **p ≤ 0.01, and ***p ≤ 0.001). […]
# [3] = tested on: total protein synthesis in HeLa HIVrtTA∆Mls cells; assay: SUnSET total protein synthesis; format: cell-based; settings: negative control
# Experimental: The effect of the compounds on nascent protein synthesis was measured by surface sensing of translation (SUnSET) as described by Schmidt et al.. Cells were incubated with puromycin, an aminoacyl tRNA analog, to allow puromycin incorporation into newly translated peptides and prevention of further ribosomal elongation by chain termination. To assess the effect of the compounds on protein translation, cells were prepared and treated as described above, but were incubated with 10 μg/mL of puromycin for a period of 30 min prior to harvesting cell lysates for protein analysis. Protein concentration of cell lysates was quantified by Bradford assay and equal amounts of protein (30–35 μg) was run on either 10% or 4–15% (gradient) gels. Following transfer to PVDF (BioRad), blots were probed with mouse monoclonal antibody to puromycin (anti-12D10, EMD Millipore). Blots were developed using ECL Plus (Perkin-Elmer) or Clarity (BioRad) and imaged using the ChemiDoc MP Imager (BioRad). To quantify the levels of protein synthesis, the volume intensity in each lane of compound-treated sample was calculated relative to the DMSO-treated sample and normalized to GAPDH loading control using ImageLab software (BioRad) from at least four independent experiments.
# [4] = tested on: HIV-1 Tat (p14, p16) and Gag; assay: Rescue of Tat/Gag expression by proteasome inhibitor MG132; format: cell-based; settings: MG132 10 μM for 8 h, with 791, 833 or 892
# Experimental: To assess effect of compounds on HIV-1 Tat stability, the decay of HIV-1 Tat levels was compared between DMSO-treated and compound-treated protein lysates in the presence of cycloheximide. In the first set of experiments, HIV-1 gene expression was induced with doxycylin (dox) for 24 h then 10 μg/mL cycloheximide was added to block new protein synthesis in combination with either DMSO or the compounds. Cells were harvested every 2 h and Tat protein levels measured by western blot. Quantification of the relative intensity of the detected bands was performed using ImageLab software (BioRad) and normalized to corresponding bands of the loading control (GAPDH) from at least three independent experiments. To determine whether the compounds’ effect on HIV-1 gene expression could be reversed by inhibition of the proteasome, compound treatment assay was performed as previously described with the addition of 10 μM MG132 (Sigma-Aldrich) to compound-treated cells 8 h prior to harvesting. Equal amounts of protein were run on 13 or 14% gels by SDS-PAGE, blotted and probed with antibodies for Tat and GAPDH. Quantification of the relative intensity of the detected bands was performed using ImageLab software (BioRad) and normalized to corresponding bands of the loading control (GAPDH) from at least three independent experiments.
smiles,measurement,setting,value
COc1cc(/C=C/C(=O)CC(=O)/C=C/c2ccc(O)c(OC)c2)ccc1O [curcumin],Tat and p53 levels,[1],reduces
CCC(=C/[C@H](C)C/C=C/C(C)=C/[C@@H](C)C(=O)[C@@H](C)[C@H](O)[C@@H](C)C/C(C)=C/C(=O)O)/C=C/[C@@H]1OC(=O)C=C[C@@H]1C [leptomycin B],HIV-1 MS RNA abundance,[2],little or no change
same,HIV-1 US and SS RNA levels,[2],dramatic reduction
"C[C@@H]1C[C@@H]([C@H](O)CC2CC(=O)NC(=O)C2)C(=O)[C@@H](C)C1 [cycloheximide, reference compound]",puromycin signal (newly synthesized polypeptides),[3],little
"CC(C)C[C@@H](C=O)NC(=O)[C@H](CC(C)C)NC(=O)[C@H](CC(C)C)NC(=O)OCc1ccccc1 [MG132, reference compound] (Cbz-Leu-Leu-Leu-aldehyde)",production of HIV-1 Gag on addition of MG132,[4],did not restore
